Measured values from patent publication US9556228B2 (Universitaet Leipzig, priority 2011, dated 2017).
Converted amounts (≈) assume the structure as drawn. Peptide text beside a SMILES is read from it.

Columns and labels:
Format in all cases: cell-based
[1] = tested on: Pseudomonas aeruginosa PAO1 (wt strain); conditions: for Improvement over Native Sequence (SEQ No. 2) P. aeruginosa PAO1 wt: fold, from MIC in 1/8 MHB
Experimental: (§1) The minimum inhibitory concentrations (MIC) of the peptides were determined in a double assay of triplicates using a positive control sample (gentamycin) and a negative control sample (0.9% NaCl solution), according to a modified protocol from Wiegand et al. (Wiegand, 2008).
(§2) For this purpose, the peptides were dissolved in water and were diluted in a double dilution series with 1/8 MH (eight-fold diluted Mueller-Hinton-Medium—2.6 g/L, Merck) in sterile 96-well, plates (Greiner Bio-One GmbH) in twelve dilution steps from 128 μg/mL to 62.5 ng/mL. Overnight cultures were adjusted using ⅛ MHB to approximately 1.5×10^7 colony forming units per mL. Of these, 50 μL of peptide solution per well was mixed with 50 μL bacteria solution each to obtain an initial concentration of […] bacteria per well. After 20 hours of incubation at 37′C, the absorption was determined at 595 nm (microplate reader, Wallac Victor3, Perkin Elmer). The minimum inhibitory concentration was identified as the lowest peptide concentration at which no bacterial growth could be detected.
(§3) In the experiment, the antibacterial activity of the peptides according to the invention in relation to the following bacterial strains was analyzed: Pseudomonas aeruginosa PAO1 (wt strain), Pseudomonas aeruginosa DSM 9644, Staphylococcus aureus DSM 1104/ATCC 25923, Staphylococcus aureus ATCC 6247, Escherichia coli UB 1005 (F—, nalA37, metB1) and Escherichia coli ATCC25922.

[2] = tested on: Staphylococcus aureus DSM 1104/ATCC 25923; conditions: for MIC S. aureus ATCC 25923: DSM 1104; for Improvement over Native Sequence (SEQ No. 2) S. aureus ATCC 25923: fold, from MIC in 1/8 MHB
Experimental: as §1, §2, §3

Escherichia coli UB 1005 = assay: Minimum inhibitory concentration (MIC), broth microdilution; conditions: for MIC E. coli UB1005: 1/8 MHB, Table 4; for Improvement over Native Sequence (SEQ No. 2) E. coli UB1005: fold, from MIC in 1/8 MHB
Experimental: as §1, §2, §3

SMILES	MIC P. aeruginosa PAO1 wt [1]	Improvement over Native Sequence (SEQ No. 2) P. aeruginosa PAO1 wt [1]	MIC S. aureus ATCC 25923 [2]	Improvement over Native Sequence (SEQ No. 2) S. aureus ATCC 25923 [2]	MIC E. coli UB1005 (Escherichia coli UB 1005)	Improvement over Native Sequence (SEQ No. 2) E. coli UB1005 (Escherichia coli UB 1005)
CC[C@H](C)[C@H](NC(=O)[C@H](Cc1ccc(O)cc1)NC(=O)[C@@H](NC(=O)[C@@H]1CCCN1C(=O)[C@H](CCCNC(=N)N)NC(=O)[C@H](CC(N)=O)NC(=O)[C@H](Cc1c[nH]c2ccccc12)NC(=O)CN)C(C)C)C(=O)N1CCC[C@H]1C(=O)N[C@@H](CCC(N)=O)C(=O)N1CCC[C@H]1C(=O)N[C@@H](CCCNC(=N)N)C(=O)N1CCC[C@H]1C(=O)N1CCC[C@H]1C(=O)N[C@@H](Cc1c[nH]cn1)C(=O)N1CCC[C@H]1C(=O)N[C@@H](CCCNC(=N)N)C(=O)N[C@@H](CC(C)C)C(N)=O [compound 54] (H-GWNRPVYIPQPRPPHPRL-NH2; N-terminus assumed)	64 µg/mL (≈ 29.4 µM)	8	63 µg/mL (≈ 28.9 µM)	4	1.25 µg/mL (≈ 0.574 µM)	4
CC[C@H](C)[C@H](NC(=O)[C@H](Cc1ccc(O)cc1)NC(=O)[C@@H](NC(=O)[C@@H]1CCCN1C(=O)[C@H](CCCNC(=N)N)NC(=O)[C@H](CC(N)=O)NC(=O)[C@H](CCCNC(=N)N)NC(=O)CN)C(C)C)C(=O)N1CCC[C@H]1C(=O)N[C@@H](CCC(N)=O)C(=O)N1CCC[C@H]1C(=O)N[C@@H](CCCNC(=N)N)C(=O)N1CCC[C@H]1C(=O)N1CCC[C@H]1C(=O)N[C@@H](Cc1c[nH]cn1)C(=O)N1CCC[C@H]1C(=O)N[C@@H](CCCNC(=N)N)C(=O)N[C@@H](CC(C)C)C(N)=O [compound 55] (H-GRNRPVYIPQPRPPHPRL-NH2; N-terminus assumed)	64 to 128 µg/mL	4-8	32 µg/mL (≈ 14.9 µM)	8	0.625 µg/mL (≈ 0.291 µM)	8
CC[C@H](C)[C@H](NC(=O)[C@H](Cc1ccc(O)cc1)NC(=O)[C@@H](NC(=O)[C@H](CS)NC(=O)[C@H](CCCNC(=N)N)NC(=O)[C@H](CC(N)=O)NC(=O)[C@H](CC(N)=O)NC(=O)CN)C(C)C)C(=O)N1CCC[C@H]1C(=O)N[C@@H](CCC(N)=O)C(=O)N1CCC[C@H]1C(=O)N[C@@H](CCCNC(=N)N)C(=O)N1CCC[C@H]1C(=O)N1CCC[C@H]1C(=O)N[C@@H](Cc1c[nH]cn1)C(=O)N1CCC[C@H]1C(=O)N[C@@H](CCCNC(=N)N)C(=O)N[C@@H](CC(C)C)C(N)=O [compound 56] (H-GNNRCVYIPQPRPPHPRL-NH2; N-terminus assumed)	125 µg/mL (≈ 59.1 µM)	4	31 µg/mL (≈ 14.7 µM)	8	10 µg/mL (≈ 4.73 µM)	1
CC[C@H](C)[C@H](NC(=O)[C@H](Cc1ccc(O)cc1)NC(=O)[C@@H](NC(=O)[C@H](CCCNC(=N)N)NC(=O)[C@H](CCCNC(=N)N)NC(=O)[C@H](CC(N)=O)NC(=O)[C@H](CC(N)=O)NC(=O)CN)C(C)C)C(=O)N1CCC[C@H]1C(=O)N[C@@H](CCC(N)=O)C(=O)N1CCC[C@H]1C(=O)N[C@@H](CCCNC(=N)N)C(=O)N1CCC[C@H]1C(=O)N1CCC[C@H]1C(=O)N[C@@H](Cc1c[nH]cn1)C(=O)N1CCC[C@H]1C(=O)N[C@@H](CCCNC(=N)N)C(=O)N[C@@H](CC(C)C)C(N)=O [compound 57] (H-GNNRRVYIPQPRPPHPRL-NH2; N-terminus assumed)	64 µg/mL (≈ 29.5 µM)	8	32 µg/mL (≈ 14.8 µM)	8	5 µg/mL (≈ 2.31 µM)	1
CC(C)C[C@H](NC(=O)[C@H](CCCNC(=N)N)NC(=O)[C@@H]1CCCN1C(=O)[C@H](Cc1c[nH]cn1)NC(=O)[C@@H]1CCCN1C(=O)[C@@H]1CCCN1C(=O)[C@H](CCCNC(=N)N)NC(=O)[C@@H]1CCCN1C(=O)[C@H](CCC(N)=O)NC(=O)[C@@H]1CCCN1C(=O)[C@H](CCCNC(=N)N)NC(=O)[C@H](Cc1ccc(O)cc1)NC(=O)[C@@H](NC(=O)[C@@H]1CCCN1C(=O)[C@H](CCCNC(=N)N)NC(=O)[C@H](CC(N)=O)NC(=O)[C@H](CC(N)=O)NC(=O)CN)C(C)C)C(N)=O [compound 58] (H-GNNRPVYRPQPRPPHPRL-NH2; N-terminus assumed)	64 µg/mL (≈ 29.8 µM)	8	63 µg/mL (≈ 29.3 µM)	4	0.313 µg/mL (≈ 0.146 µM)	16
CC[C@H](C)[C@H](NC(=O)[C@H](Cc1ccc(O)cc1)NC(=O)[C@@H](NC(=O)[C@@H]1CCCN1C(=O)[C@H](CCCNC(=N)N)NC(=O)[C@H](CC(N)=O)NC(=O)[C@H](CC(N)=O)NC(=O)CN)C(C)C)C(=O)N1CCC[C@H]1C(=O)N[C@@H](CCC(N)=O)C(=O)N1CCC[C@H]1C(=O)N[C@@H](CCCNC(=N)N)C(=O)N[C@@H](CCCNC(=N)N)C(=O)N1CCC[C@H]1C(=O)N[C@@H](Cc1c[nH]cn1)C(=O)N1CCC[C@H]1C(=O)N[C@@H](CCCNC(=N)N)C(=O)N[C@@H](CC(C)C)C(N)=O [compound 59] (H-GNNRPVYIPQPRRPHPRL-NH2; N-terminus assumed)	125 µg/mL (≈ 57.7 µM)	4	31 µg/mL (≈ 14.3 µM)	8	10 µg/mL (≈ 4.62 µM)	1
CC[C@H](C)[C@H](NC(=O)[C@H](Cc1ccc(O)cc1)NC(=O)[C@@H](NC(=O)[C@@H]1CCCN1C(=O)[C@H](CCCNC(=N)N)NC(=O)[C@H](CC(N)=O)NC(=O)[C@H](CC(N)=O)NC(=O)CN)C(C)C)C(=O)N1CCC[C@H]1C(=O)N[C@@H](CCC(N)=O)C(=O)N1CCC[C@H]1C(=O)N[C@@H](CCCNC(=N)N)C(=O)N1CCC[C@H]1C(=O)N[C@@H](CS)C(=O)N[C@@H](Cc1c[nH]cn1)C(=O)N1CCC[C@H]1C(=O)N[C@@H](CCCNC(=N)N)C(=O)N[C@@H](CC(C)C)C(N)=O [compound 60] (H-GNNRPVYIPQPRPCHPRL-NH2; N-terminus assumed)	250 µg/mL (≈ 118 µM)	2	16 µg/mL (≈ 7.57 µM)	16	20 µg/mL (≈ 9.46 µM)	0
CC[C@H](C)[C@H](NC(=O)[C@H](Cc1ccc(O)cc1)NC(=O)[C@@H](NC(=O)[C@@H]1CCCN1C(=O)[C@H](CCCNC(=N)N)NC(=O)[C@H](CC(N)=O)NC(=O)[C@H](CC(N)=O)NC(=O)CN)C(C)C)C(=O)N1CCC[C@H]1C(=O)N[C@@H](CCC(N)=O)C(=O)N1CCC[C@H]1C(=O)N[C@@H](CCCNC(=N)N)C(=O)N1CCC[C@H]1C(=O)N1CCC[C@H]1C(=O)N[C@@H](Cc1c[nH]cn1)C(=O)N[C@@H](CS)C(=O)N[C@@H](CCCNC(=N)N)C(=O)N[C@@H](CC(C)C)C(N)=O [compound 61] (H-GNNRPVYIPQPRPPHCRL-NH2; N-terminus assumed)	125 µg/mL (≈ 59.1 µM)	4	32 µg/mL (≈ 15.1 µM)	8	–	0
CC[C@H](C)[C@H](NC(=O)[C@H](Cc1ccc(O)cc1)NC(=O)[C@@H](NC(=O)[C@@H]1CCCN1C(=O)[C@H](CCCNC(=N)N)NC(=O)[C@H](CC(N)=O)NC(=O)[C@H](CC(N)=O)NC(=O)CN)C(C)C)C(=O)N1CCC[C@H]1C(=O)N[C@@H](CCC(N)=O)C(=O)N1CCC[C@H]1C(=O)N[C@@H](CCCNC(=N)N)C(=O)N1CCC[C@H]1C(=O)N1CCC[C@H]1C(=O)N[C@@H](Cc1c[nH]cn1)C(=O)N1CCC[C@H]1C(=O)N[C@@H](CCCNC(=N)N)C(=O)N[C@@H](CCCNC(=N)N)C(N)=O [compound 62] (H-GNNRPVYIPQPRPPHPRR-NH2; N-terminus assumed)	125 µg/mL (≈ 58.1 µM)	4	125 µg/mL (≈ 58.1 µM)	2	1.25 to 2.5 µg/mL	2-4
